In PubChem BioAssay AID493130 (Broad Institute, 2011):
Records with an inconclusive call do not appear. Calls of active or inactive are those of the source.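 Rule for the calls: active = signal-lowering compounds whose fitted half-maximal concentration is at most ten times their highest tested dose; inconclusive = flat fit between -30 and -70%, or poor fit; inactive = flat within 30%, signal rising, or potency beyond limit.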

These compounds were tested against POS-1 (Caenorhabditis elegans) binding to mex-3 RNA (assay: C. elegans POS-1 RNA interaction disruptors – biochemical, fluorescence polarization, cherry-picked samples, set 2, counter-screen for MEX-5 RNA-binding inhibitor project, dose response (AID 493130;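 note: POS-1 as maltose binding protein fusion made in E. coli with FITC RNA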)). Conditions: POS-1/mex-3 RNA fluorescence polarization, 1 h.

| SMILES | AC50 |
| --- | --- |
| CCCCCCc1cc2cc(C(=O)NC)c(=N)oc2cc1O | 1.62 µM |
| O=c1[nH]n2c(=O)c3c([nH]c2c1N=Nc1ccccc1)CCC3 | 0.677 µM |
| Cc1occc1C(=O)N/N=C/C1=C(N2CCOCC2)C(=C\c2ccc(Cl)cc2Cl)/CC1 | 8.21 µM |
| COc1ccc(N=Nc2nc3ccc(Br)cc3n2C)cc1 | 2.16 µM |
| O=[N+]([O-])c1ccc(NCc2ccccc2)c2nonc12 | 0.434 µM |
| N#CC1(C#N)C(c2ccccc2)OC23CCCCC2C1(C#N)C(=N)O3 (stereo not drawn) | 4.61 µM |
| COc1ccc2c(c1)NP(=S)(Oc1ccccc1)N2 (stereo not drawn) | 6.91 µM |

Same assay, conditions: POS-1/mex-3 RNA fluorescence polarization, 1 h; at 10 µM (top of the series)

| SMILES | activity change, negative = inhibition |
| --- | --- |
| CSc1ccc(C(c2c(C(=O)O)[nH]c3ccccc23)c2c(C(=O)O)[nH]c3ccccc23)cc1 | inactive |
| O=c1[nH]nc(CNc2ccc(Cl)cc2Cl)c2ccccc12 | inactive |
| Cc1c(C(=O)O)c(C(=O)O)nc2ccc(N3CCOCC3)cc12 | inactive |
| O=C(/C=C/c1ccc(O)c(O)c1)OC1C(O)CC(OC(=O)/C=C/c2ccc(O)c(O)c2)(C(=O)O)CC1O (stereo not drawn) | inactive |
| CCc1nnc(NS(=O)(=O)c2ccc(N=Cc3c(O)n(-c4ccc(Cl)cc4)c(=O)[nH]c3=O)cc2)s1 | inactive |
| COc1ccc(N(CCC#N)C(=O)/C(C#N)=C\c2cccs2)cc1 | inactive |
| COCC(C)N1CCC(n2nccc2NC(=O)CCCc2ccccc2)CC1 (stereo not drawn) | inactive |
| Cc1cccc(-n2c(N)c(-c3nc4ccccc4n3C)c3nc4ccccc4nc32)c1 | inactive |
| COc1ccc(C2c3sc(=O)[nH]c3SCC2C(N)=O)cc1 (stereo not drawn) | inactive |
| O=C(NNc1ccccc1)C(=O)NNS(=O)(=O)c1ccc(CCCl)cc1 | inactive |
| COC(=O)C1=C(C)N(c2ccc(C)c(C)c2)/C(=C/c2cccs2)C1=O | inactive |
| CCOC(=O)NC(=O)/C(C#N)=C\Nc1sccc1C(=O)OC | inactive |
| COc1ccc(/C=C/C(=O)c2cc(Cl)cc(Cl)c2O)c(OC)c1 | inactive |
| COc1ccc(CC(=O)NNC(=O)c2cnccn2)cc1 | inactive |
| CS(=O)(=O)c1ccccc1C(=O)Nc1cccc2ncccc12 | inactive |
| CCN(CC)CCOc1ccc2c(c1)C(=NNC(=O)c1ccccn1)c1cc(OCCN(CC)CC)ccc1-2 | inactive |
| Cc1cc(C(=O)N/N=C/c2ccc(-c3ccc([N+](=O)[O-])cc3Cl)o2)n[nH]1 | inactive |
| Cc1cc(/C=C(\C#N)c2nc3ccccc3[nH]2)c(C)n1C | inactive |
| O=C(NNC(=S)NC(=O)c1ccccc1[N+](=O)[O-])c1ccccc1[N+](=O)[O-] | inactive |
| N#C/C(=N\Nc1cccc(C(F)(F)F)c1)C(=O)c1ccsc1 | inactive |
| C=CCn1c(O)c(N=NC(=O)CNC(=O)/C=C/c2ccco2)c2ccccc21 | inactive |
| COc1ccccc1CN1CC(C(=O)NCCN(C)CCc2ccccc2)CCC1=O (stereo not drawn) | inactive |
| Nc1ccc2nc(CN3CCOCC3)[nH]c2c1 | inactive |
| Cc1ccc(C)c(NC(=O)CCC(=O)NNC(=S)Nc2ccccc2)c1 | inactive |
| O=C1SC(SCc2ccccc2Cl)=N/C1=C\c1ccc(C(=O)O)cc1 | inactive |
| CCOC(=O)c1ccc(NC(=O)C(=O)NCc2ccc(/C=C(/C#N)C(=O)NCCOC)o2)cc1 | inactive |
